In patent US20170009272A1, “IN-SILICO BASED TECHNIQUES IN THE IDENTIFICATION OF POTENT ß-GLUCORONIDASE INHIBITORS” (priority 2015, published 2017):
Where two headings read alike, the source gives them in different places.

What was measured:
[1] = biological target: T1, β-glucoronidase (Escherichia coli, UniProt P05804); assay: β-Glucuronidase inhibition assay (spectrophotometric, p-nitrophenyl-β-D-glucuronide substrate); format: biochemical; details: for % inhibition: test concentration not given
T1 construct: purchased Sigma Aldrich G7396-25KU
T1 sequence (P05804 whole entry): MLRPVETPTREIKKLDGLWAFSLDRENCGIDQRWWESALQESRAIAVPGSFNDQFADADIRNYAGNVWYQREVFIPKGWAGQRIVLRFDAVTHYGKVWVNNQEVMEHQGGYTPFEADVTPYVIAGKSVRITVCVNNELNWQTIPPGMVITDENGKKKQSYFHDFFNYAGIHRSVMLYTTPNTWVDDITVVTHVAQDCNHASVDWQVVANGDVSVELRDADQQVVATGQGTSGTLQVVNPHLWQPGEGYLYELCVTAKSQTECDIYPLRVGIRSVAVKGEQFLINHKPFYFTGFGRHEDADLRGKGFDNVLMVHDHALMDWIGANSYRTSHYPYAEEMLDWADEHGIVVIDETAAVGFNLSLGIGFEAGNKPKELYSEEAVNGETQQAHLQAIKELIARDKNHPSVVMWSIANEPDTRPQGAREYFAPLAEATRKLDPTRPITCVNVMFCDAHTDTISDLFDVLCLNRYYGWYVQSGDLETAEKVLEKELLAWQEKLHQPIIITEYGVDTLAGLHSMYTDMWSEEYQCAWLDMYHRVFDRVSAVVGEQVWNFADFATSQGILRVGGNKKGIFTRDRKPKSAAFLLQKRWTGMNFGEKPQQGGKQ
Procedure: β-Glucuronidase inhibition assay protocol: Inhibitory activity of β-Glucuronidase was determined with the help of spectrophotometric method by measuring the absorbance at 405 nm of p-nitro phenol formed from the substrate (p-nitro phenyl-β-D-glucuronide, N1627-250 mg, Sigma Aldrich). The total reaction volume was 250 μL. The compound dissolved in DMSO (100%), which becomes 2% in the ultimate assay (250 μL) and the similar conditions were used for standard (D-saccharin acid 1,4-lactone, Sigma Aldrich). The reaction mixture contained 185 μL of 0.1 M acetate buffer, 5 μL of test compound solution, 10 μL of (1U) enzyme solution (G7396-25KU, Sigma Aldrich) was incubated at 37° C. for 30 min. The plates were read on a multiplate reader (SpectraMax plus 384) at 405 nm after the addition of 50 μL of 0.4 mM p-nitrophenyl-β-D-glucuronide. All assays were performed in triplicate. IC50 Values were calculated by using EZ-Fit software (Perrella Scientific Inc., Amherst, Mass., U.S.A.). These values are the mean of three independent readings.

[2] = Cytotoxicity assay (MTT) on 3T3 mouse fibroblast cells; format: cell-based; details: 1-30 μM tested
Procedure: (§1) Cytotoxicity assay Protocol: Cytotoxic activity of compounds was evaluated in 96-well flat-bottomed micro plates by using the standard MTT (3-[4,5-dimethylthiazole-2-yl]-2,5-diphenyl-tetrazolium bromide) colorimetric assay (15). For this purpose, 3T3 (mouse fibroblast) cells were cultured in Dulbecco's Modified Eagle Medium, supplemented with 5% of fetal bovine serum (FBS), 100 IU/ml of penicillin and 100 μg/ml of streptomycin in 75 cm^2 flasks, and kept in 5% CO2 incubator at 37° C. Exponentially growing cells were harvested, counted with haemocytometer and diluted with a particular medium. Cell culture with the concentration of 5×10^4 cells/ml was prepared and introduced (100 μL/well) into 96-well plates.
(§2) After overnight incubation, medium was removed and 200 μL of fresh medium was added with different concentrations of compounds (1-30 μM). After 48 hrs, 200 ptL MTT (0.5 mg/ml) was added to each well and incubated further for 4 hrs. Subsequently, 100 μLof DMSO was added to each well. The extent of MTT reduction to formazan within cells was calculated by measuring the absorbance at 540 nm, using a micro plate reader (Spectra Max plus, Molecular Devices, Calif., USA). The cytotoxicity was recorded as concentration causing 50% growth inhibition (IC50) for 3T3 cells. The percent inhibition was calculated by using the following formula
(§3) % inhibition=100−((mean of O.D of test compound−mean of O.D of negative control)/(mean of O.D of positive control−mean of O.D of negative control)*100).
(§4) The results (% inhibition) were processed by using Soft-Max Pro software (Molecular Device, USA).

[3] = tested on: 3T3 (mouse fibroblast) cells; assay: as above; format: cell-based; details: 48 hrs, 1-30 μM tested
Procedure: as §1, §2, §3, §4

[4] = β-glucuronidase, 37° C., 30 min incubation, absorbance at 405 nm, mean of three readings, read-out: IC50

With `Oc1cccc(C(c2c[nH]c3ccc(Br)cc23)c2c[nH]c3ccc(Br)cc23)c1O` [Compound 1] the IC50 [1] was 1.2 ± 1.03 µM, the “% inhibition” value ([1]; β-glucuronidase) was 97.8% and the IC50 at 48 h [2] was 16.8 ± 0.997 µM.

For `O=C(/C=C/c1ccc(O)cc1)OC[C@@H]1C[C@H](Oc2cc(O)c3c(=O)cc(-c4ccc(O)cc4)oc3c2)[C@@H](O)[C@H](O)[C@H]1O` [Compound 3], the IC50 [1, 4] was 4.5 ± 0.44 µM, the “% inhibition” value ([1]; β-glucuronidase) was 96.9% and the IC50 at 48 h [2] was greater than 30 µM.

For `COc1ccc(C=NN2C(c3n[nH]c(=S)[nH]3)=C(O)c3ccccc3S2(=O)=O)cc1OC` [Compound 5], the IC50 [1] was 11.41 ± 0.04 µM, the “% inhibition” value ([1]; β-glucuronidase) was 78.1% and the IC50 at 48 h [2] was 13.8 ± 0.967 µM.

For `C=S1(=O)c2ccccc2C(O)=C(c2n[nH]c(=S)[nH]2)N1/N=C/c1ccc(OC)c(OC)c1OC` (centres unmarked) [Compound 6], the IC50 [1, 4] was 11.8 ± 0.86 µM, the “% inhibition” value ([1]; β-glucuronidase) was 81.0% and the IC50 at 48 h [2] was 17.1 ± 1.41 µM.

For `CCN(CC)c1ccc(/C=N/N2C(c3n[nH]c(=S)[nH]3)=C(O)c3ccccc3S2(=O)=O)cc1` [Compound 7], the IC50 [1, 4] was 14.7 ± 1.88 µM, the “% inhibition” value ([1]; β-glucuronidase) was 95.1% and the IC50 at 48 h [2] was greater than 30 µM.

For `COc1cccc(/C=N/N2C(c3n[nH]c(=S)[nH]3)=C(O)c3ccccc3S2(=O)=O)c1O` [Compound 10], the “% inhibition” value ([1]; β-glucuronidase) was 93.4% and the IC50 [3] was 19.5 ± 1.07 µM.

With `N#Cc1ccc2[nH]cc(C(c3ccccc3[N+](=O)[O-])c3c[nH]c4ccc(C#N)cc34)c2c1` [Compound 11] the IC50 [1] was 34.9 ± 0.21 µM, the “% inhibition” value ([1]; β-glucuronidase) was 57.3% and the IC50 at 48 h [2] was 9.56 ± 0.134 µM.

For `O=C1OC(C(O)C(=O)O)C(O)C1O` [D-sacharric 1,4-lactone, D-saccharic acid, 1,4-lactone, reference compound], the IC50 [1, 4] was 45.5 ± 2.16 µM and the “% inhibition” value ([1]; β-glucuronidase) was 89.4%.

With `C[C@@H]1C[C@@H]([C@H](O)CC2CC(=O)NC(=O)C2)C(=O)[C@@H](C)C1` [cycloheximide, reference compound] the IC50 at 48 h [2] was 0.2 µM.
